Assay: recombinant barcode read abundance after kanamycin selection (control-corrected) (log10(CPM+1)); higher = more efficient recombination; sequences stand for … in AGTGCAGAGAAAATCGGCCAGTTTTCTCTGCCTGCAGTCCGCATGCCGT…AGATTTATGCAGCGGACTGCCTTTCTCCCAAAGTGATAAACCGGACAGTATCATGGACCGGTTTTCCCGGTAATCCGTATTTGCAAGGTTGGTTTCACT; site = the 11-nt target
Procedure, shortened: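 Recombination efficiency draws on barcodes counted at recombinant junctions in a pooled E. coli screen of targets paired with IS621 bridge RNA target-binding loops. The counts were converted to counts per million, averaged and corrected against the chloramphenicol/ampicillin LB agar control, then reported as log10(CPM+1). Selection plates held chloramphenicol/ampicillin/kanamycin with 0.1 mM IPTG, with two replicates per condition.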
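Also: IS621 recombinase and bridge RNA in Escherichia coli cells.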

Sequence	recombinant barcode read abundance (log10)
AGAGAGTCTTGGGTTCTAACCTGTTGCCT (site AGAAAGTCTAC)	0.0903
AGAGAGTCTTGGGTTCTAACCTGTTGCCT (site AGAGAGTCTAG)	2.53
AGAGGGTCTTGGGTTCTAACCTGTTGCCT (site AAAGGGTCTAG)	0.21
AGAGGGTCTTGGGTTCTAACCTGTTGCCT (site ACAGGGTCTAG)	0.731
AGAGGGTCTTGGGTTCTAACCTGTTGCCT (site AGAGGGTCTAG)	2.79
AGAGGGTCTTGGGTTCTAACCTGTTGCCT (site ATAGGGTCTAG)	0.765
AGAGGTCCTTGGGTTCTAACCTGTTGCCT (site AGAGGTCCTAG)	2.04
AGAGGTCCTTGGGTTCTAACCTGTTGCCT (site TGAGGGCCTAG)	0.169
AGAGTGACTTGGGTTCTAACCTGTTGCCT (site AGAGAGACTAG)	1
AGAGTGACTTGGGTTCTAACCTGTTGCCT (site AGAGCGACTAG)	0.0794
AGAGTGACTTGGGTTCTAACCTGTTGCCT (site AGAGGGACTAG)	0.0448
AGAGTGACTTGGGTTCTAACCTGTTGCCT (site AGAGTGACTAG)	1.69
AGATTCACTTGGGTTCTAACCTGTTGCCT (site AGATTCACTAG)	0.994
AGATTCACTTGGGTTCTAACCTGTTGCCT (site AGATTGACTTG)	0.0824
AGATTCCCTTGGGTTCTAACCTGTTGCCG (site AGATTCCCTCG)	1.67
AGATTCCCTTGGGTTCTAACCTGTTGCCG (site AGATTCGCTCG)	0.0429
AGATTTCCTTGGGTTCTAACCTGTTGCAT (site AGATTTCCTAT)	0.173
AGATTTCCTTGGGTTCTAACCTGTTGCAT (site CATCCGACTGA)	0.0339
AGCAACACTTGGGTTCTAACCTGTTGCAG (site AGCAACACTCT)	0.467
AGCAACACTTGGGTTCTAACCTGTTGCAG (site TCTCGTCCTTA)	0.0984
AGCAATTCTTGGGTTCTAACCTGTTGCCT (site AGAAATTCTAG)	0.144
AGCAATTCTTGGGTTCTAACCTGTTGCCT (site AGCAATTCTAG)	0.165
AGCAATTCTTGGGTTCTAACCTGTTGCCT (site AGGAATTCTAG)	0.132
AGCAATTCTTGGGTTCTAACCTGTTGCCT (site AGTAATTCTAG)	0.277
AGCAGCTCTTGGGTTCTAACCTGTTGCCT (site AGCAGCTCTAG)	1.7
AGCAGCTCTTGGGTTCTAACCTGTTGCCT (site AGGAGCGCTAG)	0.0136

Sequence	recombinant barcode read abundance (log10)
AGCAGGACTTGGGTTCTAACCTGTTGCCG (site AGCACGACTCA)	0.0667
AGCAGGACTTGGGTTCTAACCTGTTGCCG (site AGCAGGACTCG)	1.17
AGCAGGGCTTGGGTTCTAACCTGTTGCAG (site AGCAGGGCTCT)	2.14
AGCAGGGCTTGGGTTCTAACCTGTTGCAG (site AGTAGGACTCT)	0.184
AGCAGGTCTTGGGTTCTAACCTGTTGCCT (site AACAGGTCTAG)	0.109
AGCAGGTCTTGGGTTCTAACCTGTTGCCT (site ACCAGGTCTAG)	0.234
AGCAGGTCTTGGGTTCTAACCTGTTGCCT (site AGCAGGTCTAG)	1.09
AGCAGGTCTTGGGTTCTAACCTGTTGCCT (site ATCAGGTCTAG)	0.0118
AGCAGTCCTTGGGTTCTAACCTGTTGCGT (site AGCAGTCCTAC)	1.47
AGCAGTCCTTGGGTTCTAACCTGTTGCGT (site AGGAGTCCTAC)	0.188
AGCAGTCCTTGGGTTCTAACCTGTTGCTG (site AGCAGTCCTCA)	0.802
AGCAGTCCTTGGGTTCTAACCTGTTGCTG (site TCCAGTCCTCA)	0.0256
AGCCACACTTGGGTTCTAACCTGTTGCCT (site AGCCACACTAG)	0.933
AGCCACACTTGGGTTCTAACCTGTTGCCT (site AGCCACCCTAG)	0
AGCCACACTTGGGTTCTAACCTGTTGCCT (site AGCCACGCTAG)	0.374
AGCCACACTTGGGTTCTAACCTGTTGCCT (site AGCCACTCTAG)	0.456
AGCCACACTTGGGTTCTAACCTGTTGCGT (site AGCCACACTAC)	0.948
AGCCACACTTGGGTTCTAACCTGTTGCGT (site TGCCAGACTAC)	0.183
AGCCCTCCTTGGGTTCTAACCTGTTGCTT (site AGCCCTCCTAA)	0.518
AGCCCTCCTTGGGTTCTAACCTGTTGCTT (site AGCCCTCCTCA)	0.667
AGCCCTCCTTGGGTTCTAACCTGTTGCTT (site AGCCCTCCTGA)	0.038
AGCCCTCCTTGGGTTCTAACCTGTTGCTT (site AGCCCTCCTTA)	0.0347
AGCCTCCCTTGGGTTCTAACCTGTTGCCT (site AGACTCCCTAG)	0.089
AGCCTCCCTTGGGTTCTAACCTGTTGCCT (site AGCCTCCCTAG)	0.474
AGCCTCCCTTGGGTTCTAACCTGTTGCCT (site AGGCTCCCTAG)	0.0381
AGCCTCCCTTGGGTTCTAACCTGTTGCCT (site AGTCTCCCTAG)	0.578

Sequence	recombinant barcode read abundance (log10)
AGCCTGACTTGGGTTCTAACCTGTTGCCT (site AGCCTGACTAG)	0.741
AGCCTGACTTGGGTTCTAACCTGTTGCCT (site AGCCTGCCTAG)	0.313
AGCCTGACTTGGGTTCTAACCTGTTGCCT (site AGCCTGGCTAG)	0.332
AGCCTGACTTGGGTTCTAACCTGTTGCCT (site AGCCTGTCTAG)	0
AGCCTGGCTTGGGTTCTAACCTGTTGCCT (site AGCCTGACTAG)	0.302
AGCCTGGCTTGGGTTCTAACCTGTTGCCT (site AGCCTGCCTAG)	0.235
AGCCTGGCTTGGGTTCTAACCTGTTGCCT (site AGCCTGGCTAG)	0.594
AGCCTGGCTTGGGTTCTAACCTGTTGCCT (site AGCCTGTCTAG)	0.0926
AGCGCTTCTTGGGTTCTAACCTGTTGCCT (site AACGCTTCTAG)	0.241
AGCGCTTCTTGGGTTCTAACCTGTTGCCT (site ACCGCTTCTAG)	0.423
AGCGCTTCTTGGGTTCTAACCTGTTGCCT (site AGCGCTTCTAG)	0.454
AGCGCTTCTTGGGTTCTAACCTGTTGCCT (site ATCGCTTCTAG)	0.0212
AGCGGACCTTGGGTTCTAACCTGTTGCCT (site AGCGGACCTAG)	1.45
AGCGGACCTTGGGTTCTAACCTGTTGCCT (site AGCGGCCCTAG)	0.133
AGCGGACCTTGGGTTCTAACCTGTTGCCT (site AGCGGGCCTAG)	0.188
AGCGGACCTTGGGTTCTAACCTGTTGCCT (site AGCGGTCCTAG)	0.0865
AGCTCACCTTGGGTTCTAACCTGTTGCCT (site AGCTCACCTAG)	0.216
AGCTCACCTTGGGTTCTAACCTGTTGCCT (site AGCTCATCTAG)	0.147
AGCTTACCTTGGGTTCTAACCTGTTGCCT (site AGCTTACCTAG)	0.204
AGCTTACCTTGGGTTCTAACCTGTTGCCT (site CGCTTACCTAG)	0.212
AGCTTACCTTGGGTTCTAACCTGTTGCCT (site GGCTTACCTAG)	0.105
AGCTTACCTTGGGTTCTAACCTGTTGCCT (site TGCTTACCTAG)	0.0503
AGCTTAGCTTGGGTTCTAACCTGTTGCCC (site AGCTTAGCTAG)	0.306
AGCTTAGCTTGGGTTCTAACCTGTTGCCC (site AGCTTAGCTCG)	0.0502
AGCTTAGCTTGGGTTCTAACCTGTTGCCC (site AGCTTAGCTGG)	0.395

— the supplement of paper PMC11208160
